In patent publication US12691112B2, “FGFR tyrosine kinase inhibitors for the treatment of urothelial carcinoma” (Janssen Pharmaceutica NV, priority 2019, dated 2026):
Where “and” joins values, the source holds several entries; their conditions need not be identical. Equal entries are not always repeated. Where two headings read alike, the source gives them in different places.

Tested on: metastatic or surgically unresectable urothelial cancer harboring select FGFR genetic alterations
Conditions: for Disease control rate (CR + PR + SD) / Inevaluable / Objective response rate (CR + PR) / Progressive disease (PD) / Confirmed complete response (CR) / Confirmed partial response (PR) / 6-month progression-free survival rate (95% CI), among responders / 9-month progression-free survival rate (95% CI), among responders / 12-month progression-free survival rate (95% CI), among responders: chemo relapsed/refractory
Source text: The study comprises a Screening Phase (molecular screening at any time prior to first dose and study screening within 30 days of first dose), a treatment phase, and a post-treatment follow-up phase. The treatment phase comprises the period from first dose until the end-of-treatment visit. The follow-up phase extends until the subject has died, withdraws consent, is lost to follow-up, or the end of study, whichever comes first.
Included patients were adults with measurable urothelial cancer per Response Evaluation Criteria in Solid Tumors version 1.1.
Patients were required to have at least 1 FGFR2/FGFR3 mutation or fusion per central lab testing of RNA from formalin-fixed, paraffin-embedded tumor samples, using a custom reverse transcriptase polymerase chain reaction assay.
Patients were contacted every 12 weeks for survival assessment.
The study was designed to enroll 180 patients with specified FGFR alterations. Of these, ≥88 were required in the selected regimen. […] Responses were assessed by investigators and an independent radiological review committee. Progression-free survival and overall survival were estimated using Kaplan-Meier product limit method. Data from patients who were progression free and alive or with unknown status were censored at last tumor assessment. Efficacy end points were analysed at primary analysis cut-off.

[1] = 10 mg 7 on/7 off, Mutation and fusion: FGFR3-S249C/FGFR3-Y373C/FGFR2-CASP7/FGFR3-BAIAP2L1/FGFR3-TACC3 V1/FGFR3-TACC3 V3, n=1
[2] = 10 mg 7 on/7 off, Mutation: FGFR3-G370C/FGFR3-S249C, n=1
[3] = 10 mg 7 on/7 off, Mutation: FGFR3-R248C/FGFR3-Y373C, n=1
[4] = 10 mg 7 on/7 off, Mutation: FGFR3-S249C/FGFR3-Y373C, n=1
[5] = Regimen 1, 10 mg intermittent (n=33)
[6] = Regimen 2, 6 mg continuous (n=78)
[7] = Regimen 3, 8 mg continuous (n=99)
[8] = Total (all 3 regimens), Any FGFR alterations, n=189
[9] = Total (all 3 regimens), FGFR fusions (excluding mutations), 6 responders
[10] = Total (all 3 regimens), FGFR fusions (excluding mutations), n=35
[11] = Total (all 3 regimens), FGFR mutations (excluding fusions), 58 responders
[12] = Total (all 3 regimens), FGFR mutations (excluding fusions), n=147
[13] = Total (all 3 regimens), FGFR mutations and fusions, 4 responders
[14] = Total (all 3 regimens), FGFR mutations and fusions, n=7
[15] = Total (all 3 regimens), Fusion: FGFR2-CASP7/FGFR3-BAIAP2L1, n=1
[16] = Total (all 3 regimens), Fusion: FGFR2-CASP7/FGFR3-TACC3 V3, n=1
[17] = Total (all 3 regimens), Mutation and fusion: FGFR3-G370C/FGFR2-BICC1, n=1
[18] = Total (all 3 regimens), Mutation and fusion: FGFR3-G370C/FGFR3-TACC3 V1, n=1
[19] = Total (all 3 regimens), Mutation and fusion: FGFR3-R248C/FGFR3-S249C/FGFR3-TACC3 V1, n=1
[20] = Total (all 3 regimens), Mutation and fusion: FGFR3-R248C/FGFR3-TACC3 V1, n=2
[21] = Total (all 3 regimens), Mutation and fusion: FGFR3-S249C/FGFR3-BAIAP2L1, n=1
[22] = Total (all 3 regimens), Mutation and fusion: FGFR3-S249C/FGFR3-Y373C/FGFR2-CASP7/FGFR3-BAIAP2L1/FGFR3-TACC3 V1/FGFR3-TACC3 V3, n=1
[23] = Total (all 3 regimens), Mutation: FGFR3-G370C/FGFR3-S249C, n=2
[24] = Total (all 3 regimens), Mutation: FGFR3-R248C/FGFR3-Y373C, n=2
[25] = Total (all 3 regimens), Mutation: FGFR3-S249C/FGFR3-Y373C, n=1

COc1cc(OC)cc(N(CCNC(C)C)c2ccc3ncc(-c4cnn(C)c4)nc3c2)c1 [erdafitinib, N-(3,5-dimethoxy-phenyl)-N′-(1-methylethyl)-N-[3-(1-methyl-1H-pyrazol-4-yl)quinoxalin-6-yl]ethane-1,2-diamine]
Disease control rate (CR + PR + SD) [1]: 1 (100.0%) | Inevaluable [1]: 0% | Objective response rate (CR + PR) [1]: 0% | Progressive disease (PD) [1]: 0% | Confirmed complete response (CR) [2]: 0% | Confirmed partial response (PR) [2]: 1 (100.0%) | Disease control rate (CR + PR + SD) [2]: 1 (100.0%) | Inevaluable [2]: 0% | Objective response rate (CR + PR) [2]: 1 (100.0%) | Progressive disease (PD) [2]: 0% | Confirmed complete response (CR) [3]: 0% | Confirmed partial response (PR) [3]: 1 (100.0%) | Disease control rate (CR + PR + SD) [3]: 1 (100.0%) | Inevaluable [3]: 0% | Objective response rate (CR + PR) [3]: 1 (100.0%) | Progressive disease (PD) [3]: 0% | Confirmed complete response (CR) [4]: 0% | Confirmed partial response (PR) [4]: 0% | Disease control rate (CR + PR + SD) [4]: 1 (100.0%) | Inevaluable [4]: 0% | Objective response rate (CR + PR) [4]: 0% | Progressive disease (PD) [4]: 0% | Complete response per investigator assessment [5]: 1 (3) % | Not evaluable or unknown per investigator assessment [5]: 2 (6) % | Objective response rate per investigator assessment [5]: 7 (21) % | Partial response per investigator assessment [5]: 6 (18) % | Progressive disease per investigator assessment [5]: 6 (18) % | Stable disease per investigator assessment [5]: 18 (55) % | Objective response rate per investigator assessment (Regimen 1, 10 mg intermittent, liver metastases): 3/11 (27) % | Complete response per investigator assessment [6]: 3 (4) % | Not evaluable or unknown per investigator assessment [6]: 5(6) % | Objective response rate per investigator assessment [6]: 27 (35) % | Partial response per investigator assessment [6]: 24 (31) % | Progressive disease per investigator assessment [6]: 16 (21) % | Objective response rate per investigator assessment (Regimen 2, 6 mg continuous, bone metastases): 6/15 (40) % | Not evaluable or unknown per investigator assessment [7]: 2 (2.0) % | Objective response rate per investigator assessment [7]: 40.4% and 40% and 40 (40.4) % | Partial response per investigator assessment [7]: 37 (37.4) % | Progressive disease per investigator assessment [7]: 18 (18.2) % | Stable disease per investigator assessment [7]: 39% and 39 (39.4) % | Objective response rate per investigator assessment (Regimen 3, 8 mg continuous, with FGFR3 mutations (n=74)): 48.6% and 36/74 (48.6) % | Median DoR (95% CI), investigator assessment (Regimen 3, chemotherapy-refractory patients, N = 87): 5.55 (4.21, 7.00) months | Confirmed complete response (CR) [8]: 7 (3.7%) | Confirmed partial response (PR) [8]: 61 (32.3%) | Disease control rate (CR + PR + SD) [8]: 147 (77.8%) | Inevaluable [8]: 8 (4.2%) | Objective response rate (CR + PR) [8]: 68 (36.0%) | Progressive disease (PD) [8]: 34 (18.0%) | 6-month progression-free survival rate (95% CI), among responders [9]: 0.50 (0.11, 0.80) | 9-month progression-free survival rate (95% CI), among responders [9]: 0.50 (0.11, 0.80) | 12-month progression-free survival rate (95% CI), among responders [9]: 0.50 (0.11, 0.80) | Confirmed complete response (CR) [10]: 0% | Confirmed partial response (PR) [10]: 6 (17.1%) | Disease control rate (CR + PR + SD) [10]: 25 (71.4%) | Inevaluable [10]: 2 (5.7%) | Objective response rate (CR + PR) [10]: 6 (17.1%) | Progressive disease (PD) [10]: 8 (22.9%) | 6-month progression-free survival rate (95% CI), among responders [11]: 0.45 (0.32, 0.58) | 9-month progression-free survival rate (95% CI), among responders [11]: 0.29 (0.17, 0.42) | 12-month progression-free survival rate (95% CI), among responders [11]: 0.22 (0.12, 0.35) | Confirmed complete response (CR) [12]: 6 (4.1%) | Confirmed partial response (PR) [12]: 52 (35.4%) | Disease control rate (CR + PR + SD) [12]: 117 (79.6%) | Inevaluable [12]: 5 (3.4%) | Objective response rate (CR + PR) [12]: 58 (39.5%) | Progressive disease (PD) [12]: 25 (17.0%) | 6-month progression-free survival rate (95% CI), among responders [13]: 0.50 (0.06, 0.84) | 9-month progression-free survival rate (95% CI), among responders [13]: 0.50 (0.06, 0.84) | 12-month progression-free survival rate (95% CI), among responders [13]: 0.25 (0.01, 0.67) | Confirmed complete response (CR) [14]: 1 (14.3%) | Confirmed partial response (PR) [14]: 3 (42.9%) | Disease control rate (CR + PR + SD) [14]: 5 (71.4%) | Inevaluable [14]: 1 (14.3%) | Objective response rate (CR + PR) [14]: 4 (57.1%) | Progressive disease (PD) [14]: 1 (14.3%) | Confirmed complete response (CR) [15]: 0% | Confirmed partial response (PR) [15]: 0% | Disease control rate (CR + PR + SD) [15]: 1 (100.0%) | Inevaluable [15]: 0% | Objective response rate (CR + PR) [15]: 0% | Progressive disease (PD) [15]: 0% | Confirmed complete response (CR) [16]: 0% | Confirmed partial response (PR) [16]: 0% | Disease control rate (CR + PR + SD) [16]: 0% | Inevaluable [16]: 1 (100.0%) | Objective response rate (CR + PR) [16]: 0% | Progressive disease (PD) [16]: 0% | Confirmed complete response (CR) [17]: 1 (100.0%) | Confirmed partial response (PR) [17]: 0% | Disease control rate (CR + PR + SD) [17]: 1 (100.0%) | Inevaluable [17]: 0% | Objective response rate (CR + PR) [17]: 1 (100.0%) | Progressive disease (PD) [17]: 0% | Confirmed complete response (CR) [18]: 0% | Confirmed partial response (PR) [18]: 1 (100.0%) | Disease control rate (CR + PR + SD) [18]: 1 (100.0%) | Inevaluable [18]: 0% | Objective response rate (CR + PR) [18]: 1 (100.0%) | Progressive disease (PD) [18]: 0% | Confirmed complete response (CR) [19]: 0% | Confirmed partial response (PR) [19]: 1 (100.0%) | Disease control rate (CR + PR + SD) [19]: 1 (100.0%) | Inevaluable [19]: 0% | Objective response rate (CR + PR) [19]: 1 (100.0%) | Progressive disease (PD) [19]: 0% | Confirmed complete response (CR) [20]: 0% | Confirmed partial response (PR) [20]: 1 (50.0%) | Disease control rate (CR + PR + SD) [20]: 1 (50.0%) | Inevaluable [20]: 1 (50.0%) | Objective response rate (CR + PR) [20]: 1 (50.0%) | Progressive disease (PD) [20]: 0% | Confirmed complete response (CR) [21]: 0% | Confirmed partial response (PR) [21]: 0% | Disease control rate (CR + PR + SD) [21]: 0% | Inevaluable [21]: 0% | Objective response rate (CR + PR) [21]: 0% | Progressive disease (PD) [21]: 1 (100.0%) | Confirmed complete response (CR) [22]: 0% | Confirmed partial response (PR) [22]: 0% | Disease control rate (CR + PR + SD) [22]: 1 (100.0%) | Inevaluable [22]: 0% | Objective response rate (CR + PR) [22]: 0% | Progressive disease (PD) [22]: 0% | Confirmed complete response (CR) [23]: 0% | Confirmed partial response (PR) [23]: 1 (50.0%) | Disease control rate (CR + PR + SD) [23]: 2 (100.0%) | Inevaluable [23]: 0% | Objective response rate (CR + PR) [23]: 1 (50.0%) | Progressive disease (PD) [23]: 0% | Confirmed complete response (CR) [24]: 0% | Confirmed partial response (PR) [24]: 2 (100.0%) | Disease control rate (CR + PR + SD) [24]: 2 (100.0%) | Inevaluable [24]: 0% | Objective response rate (CR + PR) [24]: 2 (100.0%) | Progressive disease (PD) [24]: 0% | Confirmed complete response (CR) [25]: 0% | Confirmed partial response (PR) [25]: 0% | Disease control rate (CR + PR + SD) [25]: 1 (100.0%) | Inevaluable [25]: 0% | Objective response rate (CR + PR) [25]: 0% | Progressive disease (PD) [25]: 0%
